Data: the NIST ThermoML archive (doi:10.1021/je401036f)
Values joined by “and” are separate entries in the source; they are usually repeats but may differ in a detail not shown here. Identical values can stand only once.

How the values were obtained:
[1] = 101 kPa, Liquid; for viscosity: Concentric cylinders viscometry; for mass density: Vibrating tube method
[2] = refractive index (Na D-line) (dimensionless); details: 101.33 kPa, Liquid, Standard Abbe refractometry
[3] = xn = mol fraction of the nth substance listed; details: 101 kPa, Liquid, x2 = 0; for viscosity: Concentric cylinders viscometry; for mass density: Vibrating tube method
[4] = refractive index (Na D-line) (dimensionless); xn = mol fraction of the nth substance listed; details: 101 kPa, Liquid, Standard Abbe refractometry, x2 = 0

CC(O)CN (stereo not given) [1-amino-2-propanol]
Details | mass density, [1] [kg/m3] | refractive index, [2] | viscosity, [1]
288.15 K | 964.544 | 1.45 | 43.7 mPa·s
293.15 K | 960.598 | 1.448 | 31.68 mPa·s
298.15 K | 956.618 | 1.446 | 23.54 mPa·s
303.15 K | 952.612 | 1.444 | 17.89 mPa·s and 17.9 mPa·s
308.15 K | 948.577 | 1.4419 | 13.88 mPa·s
313.15 K | 944.515 | 1.4399 | 10.96 mPa·s
318.15 K | 940.423 | 1.4378 | 8.798 mPa·s
323.15 K | 936.293 | 1.4358 | 7.166 mPa·s
328.15 K | 932.13 | 1.4337 | 5.915 mPa·s
333.15 K | 927.93 | 1.4315 | 4.986 mPa·s

CCCCO [butan-1-ol]
Details | mass density, [1] [kg/m3] | refractive index, [2] | viscosity, [1] [mPa·s]
288.15 K | 813.353 | 1.4013 | 3.367
293.15 K | 809.564 | 1.3992 | 2.914
298.15 K | 805.752 | 1.3972 | 2.539
303.15 K | 801.912 | 1.3951 | 2.228
308.15 K | 798.039 | 1.393 | 1.962
313.15 K | 794.13 | 1.391 | 1.739
318.15 K | 790.18 | 1.3888 | 1.547
323.15 K | 786.179 | 1.3867 | 1.382
328.15 K | 782.125 | 1.3846 | 1.239
333.15 K | 778.012 | 1.3824 | 1.138

CCCCO [butan-1-ol] + CC(O)CN
Details | mass density, [3] [kg/m3] | refractive index, [4] | viscosity, [3] [mPa·s]
288.15 K | 813.353 | 1.4013 | 3.367
293.15 K | 809.564 | 1.3992 | 2.914
298.15 K | 805.752 | 1.3972 | 2.539
303.15 K | 801.912 | 1.3951 | 2.228
308.15 K | 798.039 | 1.393 | 1.962
313.15 K | 794.13 | 1.391 | 1.739
318.15 K | 790.18 | 1.3888 | 1.547
323.15 K | 786.179 | 1.3867 | 1.382
328.15 K | 782.125 | 1.3846 | 1.239
333.15 K | 778.012 | 1.3824 | 1.138

CCC(C)O (stereo not given) [butan-2-ol]
Details | mass density, [1] [kg/m3] | refractive index, [2] | viscosity, [1] [mPa·s]
288.15 K | 810.524 | 1.3995 | 4.59
293.15 K | 806.487 | 1.3974 | 3.738
298.15 K | 802.373 | 1.3952 | 3.074
303.15 K | 798.174 | 1.393 | 2.552
308.15 K | 793.881 | 1.3907 | 2.144
313.15 K | 789.487 | 1.3883 | 1.818
318.15 K | 784.988 | 1.3859 | 1.558
323.15 K | 780.38 | 1.3835 | 1.348
328.15 K | 775.656 | 1.381 | 1.179
333.15 K | 770.82 | 1.3784 | 1.054

CCC(C)O (stereo not given) [butan-2-ol] + CC(O)CN
Details | mass density, [3] [kg/m3] | refractive index, [4] | viscosity, [3] [mPa·s]
288.15 K | 810.524 | 1.3995 | 4.59
293.15 K | 806.487 | 1.3974 | 3.738
298.15 K | 802.373 | 1.3952 | 3.074
303.15 K | 798.174 | 1.393 | 2.552
308.15 K | 793.881 | 1.3907 | 2.144
313.15 K | 789.487 | 1.3883 | 1.818
318.15 K | 784.988 | 1.3859 | 1.558
323.15 K | 780.38 | 1.3835 | 1.348
328.15 K | 775.656 | 1.381 | 1.179
333.15 K | 770.82 | 1.3784 | 1.054
